Series [1] concerns feruloyl-CoA:monolignol transferase (FMT). Briefly: Feruloyl-CoA:monolignol transferase (FMT) enzymatic assay, substrate test with UPLC detection of product. The series is classed as biochemical, Angelica sinensis. As to conditions: purified recombinant FMT; for FMT activity with monolignol as acyl acceptor: feruloyl-CoA as acyl donor (FIGS. 2, 4, 5); for product formed from CoA thioester as acyl donor: coniferyl alcohol as acyl acceptor (FIGS. 2, 6, 7). How it is done:
The feruloyl-CoA, p-coumaroyl-CoA, and caffeoyl-CoA substrates used in the FMT assay were enzymatically synthesized using the tobacco 4-coumarate-CoA-ligase (4CL) with a c-terminal HIS tag in pCRT7/CT TOPO, provided by Eran Pichersky. Following a method modified from Beuerle and Pichersky (Anal. Biochem. 302(2): 305-12 (2001)) 3.3 mg of ferulic acid, coumaric acid or caffeic acid, 2 mg coenzyme A, and 6.9 mg ATP were added to 50 mM Tris-hydrochloride pH 8 and 2.5 mM magnesium chloride in a final volume of 10 ml. The reaction was started by adding 0.25 mg 4CL, protein purified as described by the method of Beurerle and Pichershy. After a five-hour incubation at room temperature, additional 6.9 mg ATP, 2 mg coenzyme A, and 0.25 mg purified 4CL were added and the reaction was incubated overnight. The CoA esters were purified on an SPE cartridge as described in Beuerle and Pichersky (2001).
(§1) The FMT activity assay contained 100 mM MOPS pH 6.8, 1 mM dithiothreitol (DTT), 1 mM feruloyl-CoA, 1 mM coniferyl alcohol, 3.9 μg of purified FMT protein and deionized water to a volume of 50 μL. After a 30-minute incubation, 1 μL of 10 M hydrochloric acid was added to stop the reaction. Because the product synthesized in the reaction, coniferyl ferulate (CAFA), is insoluble, 50 μL of methanol was added to solubilize the CAFA. Prior to UPLC, protein and insoluble material were removed by filtering through an Amicon Ultracel 10K membrane filter (Millipore). The flow-through was analyzed using an Acquity Ultra Performance LC with an Acquity UPLC BEH C18 1.7 μm 2.1×100 mm column and the Acquity Console and Empower 2 Software, all from Waters Corporation. The solvents used in this method were solvent A, 0.1% trifluoroacetic acid, and solvent B, 100% acetonitrile. Samples were analyzed using the following gradient conditions, 13% B, for 5 minutes, 1 minute linear gradient to 42% B, held for 4 minutes, 1 minute linear gradient to 100% B, held for 1 minutes and 3 minutes at 13% B with a flow rate of 0.3 ml/minute. This method was then used to analyze a 10 μL injection of each assay reaction; standards for each of the substrates along with chemically synthesized CAFA were used to determine retention times for each compound.
Purified recombinant enzyme was assayed for FMT activity using a reaction mixture containing 2 mM coniferyl alcohol, […], 100 mM HEPES pH 7.4 and 1 mM DTT. The second most abundant BAHD acyltransferase gene when incubated with Coniferyl alcohol and feruloyl-CoA produced a compound with the retention time of authentic coniferyl ferulate (CAFA) (FIG. 2). […] The addition of methanol to 50% after stopping the enzyme with acid was required to analyze the product by UPLC. The insolubility of the product made partial purification easy as the product was separated from the substrates by centrifugation.
This partial purified product was analyzed by NMR. The identity of the product as CAFA was confirmed by ^1H-NMR (FIG. 3). The enzyme was tested with p-coumaryl alcohol (FIG. 4) and sinapyl alcohol (FIG. 5) in addition to coniferyl alcohol (FIG. 2). The enzyme is active with all three monolignols, i.e., p-coumaryl alcohol, coniferyl alcohol and sinapyl alcohol. The enzyme was tested with p-coumaroyl-CoA (FIG. 6) and caffeoyl-CoA (FIG. 7) as well as feruloyl-CoA (FIG. 2).

The nature of series [2]: Solubility of the enzyme product in the aqueous assay mixture. Type of series: physicochemical. As to conditions: FMT reaction product; methanol to 50% needed to solubilize. How it is done: as §1, with “compound. […]” for “compound.”

Data on seven molecules can be found in patent US9487794B2, “Feruloyl-CoA:monolignol transferase” (Board of Trustees of Michigan State University, priority 2010, dated 2016).

SMILES strings stand for the structures.

As for `COc1cc(/C=C/CO)ccc1O` [coniferyl alcohol], the “FMT activity with monolignol as acyl acceptor” value (“FMT activity with monolignol” for short) in series [1] is “active”. Consider `CC(C)(COP(=O)(O)OP(=O)(O)OC[C@H]1O[C@@H](n2cnc3c(N)ncnc32)[C@H](O)[C@@H]1OP(=O)(O)O)[C@@H](O)C(=O)NCCC(=O)NCCSC(=O)/C=C/c1ccc(O)c(O)c1` [caffeoyl-CoA], for which the “product formed from CoA thioester as acyl donor” value (shortened to “product formed”) in series [1] is “very little product”. In the case of `COc1cc(/C=C/COC(=O)/C=C/c2ccc(O)c(OC)c2)ccc1O` [coniferyl ferulate], in series [2], the solubility in water entry is reported as “mostly insoluble in water”.

As for `COc1cc(/C=C/CO)cc(OC)c1O` [sinapyl alcohol], the “FMT activity with monolignol” value in series [1] was “active”. In the case of `COc1cc(/C=C/C(=O)SCCNC(=O)CCNC(=O)[C@H](O)C(C)(C)COP(=O)(O)OP(=O)(O)OC[C@H]2O[C@@H](n3cnc4c(N)ncnc43)[C@H](O)[C@@H]2OP(=O)(O)O)ccc1O` [feruloyl-CoA], the “product formed” value in series [1] was “substantial product”. Take `CC(C)(COP(=O)(O)OP(=O)(O)OC[C@H]1O[C@@H](n2cnc3c(N)ncnc32)[C@H](O)[C@@H]1OP(=O)(O)O)[C@@H](O)C(=O)NCCC(=O)NCCSC(=O)/C=C/c1ccc(O)cc1` [p-coumaroyl-CoA]: the “product formed” value in series [1] is recorded as “very little product”.

As for `OC/C=C/c1ccc(O)cc1` [p-coumaryl alcohol], the “FMT activity with monolignol” value in series [1] is on record as “active”.
